From patent US20240245787A1, “E3 LIGASE BINDERS AND USES THEREOF” (President and Fellows of Harvard College, priority 2021, published 2024)
Where two headings read alike, the source gives them in different places. Blank lines part the entries; values can stand above or below the compound they belong to. No end group written: not given here.

What was measured:
IKZF1 [1] = assay: Global quantitative proteomics of MM.1S cells; assay type: cell-based, human (Homo sapiens); settings: 10 μM, 10 h
MM.1S cells = assay: Cell viability (MTT) assay; assay type: cell-based; settings: Homo sapiens, MM1.S, 120 h, 5 d, read-out: IC50 (anti-proliferative effect)
Protocol: 2.0×10^4 MM.1S cells were seeded in each well of a 96-well plate containing 100 μL RPMI160 media supplemented with 10% FBS and 1× penicillin-streptomycin. The compound of interest was added to each well to a final concentration of 10 nM-100 μM from 100× stock solutions in 4% DMSO/PBS (1 μL). Samples were incubated at 37° C., 5% CO2 for 5 days. Each well was treated with 3-(4,5-Dimethylthiazol-2-yl)-2,5-diphenyltetrazolium (MTT, 4 mg/mL, 10 μL), and the treated plate was incubated at 37° C., 5% CO2 for 3 h. The formazan crystals were solubilized by the addition of 100 μL of 10% SDS, 0.01 M HCl per well, and the plate was allowed to incubate at 37° C. overnight. The absorbance at 570 nm was measured to quantify the formazan generated in each well. The blank was defined by wells containing media and MTT reagent without any cells. For each treatment well, the cell viability was calculated by subtracting the blank value and normalizing to the average absorbance of the vehicle control wells (cells treated with 4% DMSO/PBS).

FIG. 22C = assay: FIG. 22C
Text: Table printed on a drawing sheet, FIG. 22C
First reader's note: Per the description this is an in vitro permeability assay in Caco-2 cells; Boc-FcQ and Boc-FcN are Boc-protected dipeptide cyclic imides (cyclimids).

[2] = target: CRBN/DDB1 in the presence of BD2 domain of BRD4 (Homo sapiens, UniProt O60885+Q96SW2); assay: biochemical
CRBN/DDB1 in the presence of BD2 domain of BRD4, sequence (Q96SW2 whole entry, looked up, other chains not shown, the tested form may be a part): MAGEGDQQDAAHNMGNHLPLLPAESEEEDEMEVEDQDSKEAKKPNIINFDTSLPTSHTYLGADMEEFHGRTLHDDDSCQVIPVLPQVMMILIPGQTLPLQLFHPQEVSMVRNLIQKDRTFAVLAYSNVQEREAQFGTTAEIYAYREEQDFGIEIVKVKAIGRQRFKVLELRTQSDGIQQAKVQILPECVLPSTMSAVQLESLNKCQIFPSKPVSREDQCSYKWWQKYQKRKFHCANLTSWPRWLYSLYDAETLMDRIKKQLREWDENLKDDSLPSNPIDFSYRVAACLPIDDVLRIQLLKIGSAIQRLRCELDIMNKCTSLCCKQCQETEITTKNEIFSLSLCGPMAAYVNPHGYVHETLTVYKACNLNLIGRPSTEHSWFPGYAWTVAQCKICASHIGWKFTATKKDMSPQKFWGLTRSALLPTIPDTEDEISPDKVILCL

BRD4 with FLAG-CRBN [3] = target: T1, BRD4 with FLAG-CRBN (Homo sapiens, UniProt O60885+Q96SW2); assay: In vitro FLAG-tag co-immunoprecipitation in HEK-CRBN lysates; assay type: binding; settings: 1 μM, 2 h
BRD4 with FLAG-CRBN [4] = target: T1, BRD4 with FLAG-CRBN; assay: In vivo FLAG-tag co-immunoprecipitation in HEK-CRBN cells; assay type: cell-based; settings: 25 μM, 2 h, 1 μM MLN4924
[5] = test system: GST-BRD4 and His-CRBN/DDB1; assay: AlphaScreen for ternary complex formation; assay type: binding; settings: recombinant GST-BRD4 and His-CRBN/DDB1
Protocol: AlphaScreen buffer (3× stock solution: 150 mM HEPES pH 7.4, 600 mM NaCl, 0.3% w/v BSA, 3 mM TCEP) was prepared fresh for each experiment. A 3× stock solution of each compound (60 μM, 3% DMSO final/1× AlphaScreen buffer) and a series of 2-fold serial dilutions, in 3% DMSO/1× AlphaScreen buffer, were prepared fresh for each experiment. A solution of 750 nM His6-CRBN/DDB1, 375 nM GST-BRD4/1× AlphaScreen buffer (5 μL) was added to each well of a 384-well Optiplate. Then, compound (5 μL) was added, with each concentration assayed in triplicate. As a positive control, 10 μL 100 nM GST-His6 was added to three wells. The plate was sealed with TopSeal A, centrifuged (200× g, 25° C., 1 min), and incubated at 25° C. for 1 h. Under low light, the seal was removed and 5 μL of 60 μg/mL AlphaScreen Glutathione Donor beads, 60 μg/mL AlphaLISA Nickel Chelate […] beads/1× AlphaScreen buffer was added to each well. The plate was sealed with TopSeal A, centrifuged (200× g, 25° C., 1 min), and incubated at 25° C. for 1 h. The seal was removed and the plate was analyzed. Prior to analysis, the plate reader was calibrated with a plate containing 15 μL of 20 μg/mL Omnibeads/1× AlphaScreen buffer in the corner wells. Analysis was performed in Graphpad Prism, using the vehicle-treated wells as the baseline, fitting the signal from each compound to a Gaussian curve, and calculating the area under the curve (AUC).

[6] = target: CRBN/DDB1 in the presence of BD1 domain of BRD4 (Homo sapiens, UniProt O60885+Q96SW2); assay: biochemical
BRD4 = BRD4 (Homo sapiens, UniProt O60885)
IKZF1 [7] = assay: Western blot of IKZF1 levels in MM.1S cells; assay type: cell-based; settings: 10 μM
CRL4^CRBN complex = CRL4^CRBN complex (Homo sapiens, UniProt Q96SW2); assay: In vitro ubiquitylation of C-terminally tagged proteins; assay type: biochemical; settings: CRL4^CRBN complex isolated from HEK-CRBN cells, 30° C., 90 min
[8] = read-out: KD [ternary] (nM) | BD2
[9] = read-out: KD [ternary] (nM) | BD1

Compound: CC(C)(C)OC(=O)NC(Cc1ccccc1)C(=O)NC1CCC(=O)NC1=O (centres unmarked) [Boc-FcQ]
additional substrates degraded (global proteomics) (IKZF1 [1]): no additional substrates were degraded
degradation of IKZF1 (global proteomics) (IKZF1 [1]): not susceptible to degradation
IC50 (MM.1S cells): > 100 µM
Papp (B-A) (10^-6, cm/s) (FIG. 22C): 18.00 10^-6, cm/s
Recovery (%)BL-AP (FIG. 22C): 91.46%

Kd [2, 8]: 76 nM
Compound: Cc1sc2c(c1C)C(c1ccc(Cl)cc1)=N[C@@H](CC(=O)NCCCCCCCCC(=O)N[C@@H](C)C(=O)N[C@H]1CCC(=O)NC1=O)c1nnc(C)n1-2 [JQ1-AcQ]

Compound: Cc1sc2c(c1C)C(c1ccc(Cl)cc1)=N[C@@H](CC(=O)NCCCCCCCCC(=O)N[C@@H](CC(=O)O)C(=O)N[C@H]1CCC(=O)NC1=O)c1nnc(C)n1-2 [JQ1-DcQ]
co-immunoprecipitation of BRD4 with FLAG-CRBN in lysates (BRD4 with FLAG-CRBN [3]): equivalent co-immunoprecipitation of BRD4 with FLAG-CRBN

Compound: Cc1sc2c(c1C)C(c1ccc(Cl)cc1)=N[C@@H](CC(=O)NCCCCCCCCC(=O)N[C@@H](CCC(=O)O)C(=O)N[C@H]1CCC(=O)NC1=O)c1nnc(C)n1-2 [JQ1-EcQ]
co-immunoprecipitation of BRD4 with FLAG-CRBN in lysates (BRD4 with FLAG-CRBN [3]): equivalent co-immunoprecipitation of BRD4 with FLAG-CRBN

co-immunoprecipitation of BRD4 by FLAG-CRBN in cells (BRD4 with FLAG-CRBN [4]): readily co-immunoprecipitated
Compound: Cc1sc2c(c1C)C(c1ccc(Cl)cc1)=N[C@@H](CC(=O)NCCCCCCCCC(=O)N[C@@H](Cc1ccccc1)C(=O)N[C@H]1CC(=O)NC1=O)c1nnc(C)n1-2 [JQ1-FcN]
ternary complex formation (AlphaScreen signal / relative area under the curve normalized to dBET6) [5]: stronger ternary complex than dBET6

co-immunoprecipitation of BRD4 by FLAG-CRBN in cells (BRD4 with FLAG-CRBN [4]): readily co-immunoprecipitated
Compound: Cc1sc2c(c1C)C(c1ccc(Cl)cc1)=N[C@@H](CC(=O)NCCCCCCCCC(=O)N[C@@H](Cc1ccccc1)C(=O)N[C@H]1CCC(=O)NC1=O)c1nnc(C)n1-2 [JQ1-FcQ]
ternary complex formation (AlphaScreen signal / relative area under the curve normalized to dBET6) [5]: stronger ternary complex than dBET6

Kd [6, 9]: 381 nM
Kd [2, 8]: 335 nM
Compound: Cc1sc2c(c1C)C(c1ccc(Cl)cc1)=N[C@@H](CC(=O)NCCCCCCCCC(=O)N1CCC[C@H]1C(=O)N[C@H]1CCC(=O)NC1=O)c1nnc(C)n1-2 [JQ1-PcQ]

Kd [6, 9]: 5 nM
Kd [2, 8]: 277 nM
Compound: Cc1sc2c(c1C)C(c1ccc(Cl)cc1)=N[C@@H](CC(=O)NCCCCCCCCC(=O)N[C@@H](Cc1ccc(O)cc1)C(=O)N[C@H]1CCC(=O)NC1=O)c1nnc(C)n1-2 [JQ1-YcQ]

Compound: Cc1sc2c(c1C)C(c1ccc(Cl)cc1)=N[C@@H](CC(=O)NCCCCCCCCC(=O)N[C@H]1CC(=O)NC1=O)c1nnc(C)n1-2 [JQ1-cN]
Kd [6]: 538 nM
Kd [2]: 390 nM

Compound: Cc1sc2c(c1C)C(c1ccc(Cl)cc1)=N[C@@H](CC(=O)NCCCCCCCCC(=O)N[C@H]1CCC(=O)NC1=O)c1nnc(C)n1-2 [JQ1-cQ]
ternary complex formation (AlphaScreen signal / relative area under the curve normalized to dBET6) [5]: ternary complex formation equivalent to the active JQ1-GcQ
Kd [6]: 245 nM
Kd [2]: 267 nM
degradation of BRD4 (functional degrader or not) (BRD4): inactive

Compound: Nc1cccc2c1CN(C1CCC(=O)NC1=O)C2=O (centres unmarked) [lenalidomide, Lenalidomide, reference compound]
IC50 (MM.1S cells): 31.6 µM

Compound: Nc1cccc2c1CN(C1CCC(=O)NC1=O)C2=O (centres unmarked) [lenalidomide, Lenalidomide]
Papp (A-B) (10^-6, cm/s) (FIG. 22C): 1.22 10^-6, cm/s
Papp (B-A) (10^-6, cm/s) (FIG. 22C): 4.41 10^-6, cm/s

Compound: Nc1cccc2c1C(=O)N(C1CCC(=O)NC1=O)C2=O (centres unmarked) [pomalidomide, Pomalidomide, reference compound]
degradation of IKZF1 (global proteomics) (IKZF1 [1]): selective degradation of the substrate IKZF1
degradation of IKZF1 (Western blot) (IKZF1 [7]): degraded

in vitro ubiquitylation of tagged GFP by CRL4^CRBN complex (CRL4^CRBN complex): no modification
Compound: GFP-FN: "GFPs tagged with uncyclized glutamine and asparagine, GFP-FQ and GFP-FN" (TGGSLPETFN; not fully specified (N-terminus))

in vitro ubiquitylation of tagged GFP by CRL4^CRBN complex (CRL4^CRBN complex): no modification
Compound: GFP-FQ: "GFPs tagged with uncyclized glutamine and asparagine, GFP-FQ and GFP-FN" (TGGSLPETFQ; not fully specified (N-terminus))
